Measured values as given in patent publication US9421203B2, “Sensitization of cancer cells to DNA damage by inhibiting kinases essential for DNA damage checkpoint control” (Institute for Cancer Research, priority 2012, dated 2016).
Entries after “also recorded” stand apart in the source; their conditions may differ.

Columns and labels:
[1] = tested on: PANC1 cells; test: cells; type: cell-based; settings: for viability of gemcitabine treated PANC1 cells: gemcitabine 10 nM 24 h, then inhibitor 1 μM for 48 h (FIG. 1A)
Procedure: FIGS. 7A-7D show the viability of PANC1 cells treated with increasing concentrations of (FIG. 7A) doxorubicin or (FIG. 7B) cisplatin (24 h) before the addition of UCN-01 (100 nM) or Bos-I (1000 nM) for a further 48 hours.
Identification of clinically relevant kinase inhibitors that sensitize cells to gemcitabine. In the experiments described in this Example, the general protocol was to treat pancreatic cancer cell line (Panc-1) with a dose of gemcitabine that induces DNA damage and arrests cell cycle progression. A panel of nine different clinically relevant kinase inhibitors (FIG. 1A) were added to gemcitabine treated cells, and were assessed for their ability to enhance killing of pancreatic cancer cells to gemcitabine. PANC1 cells were treated with a sub-lethal (IC20) concentration of gemcitabine (10 nM) for 24 hours (a time and concentration sufficient to induce DNA damage and S phase arrest) and kinase inhibitors (all at 1 μM final) were added for another 48 h before cell viability was measured. UCN-01, a Chk1 inhibitor that is established as a sensitizer of gemcitabine was included as a positive control.

[2] = tested on: PANC1 cells; test: Clonogenic survival assay in PANC1 cells; type: cell-based; settings: gemcitabine 10 nM 24 h
Procedure: Surviving colonies were determined 10 days later. […] After this time all drugs were removed and cells were plated to determine their efficiency of colony formation after 10 days.

[3] = tested on: PANC1 cells; test: Time-lapse video-microscopy of checkpoint override (premature mitosis) in PANC1 cells; type: cell-based; settings: gemcitabine 24 h, then inhibitor 1 μM (UCN-01 100 nM), time-lapse 24 hours
Procedure: PANC1 cells were treated with gemcitabine for 24 hours before the addition of kinase inhibitors (1 μM), and filming commenced thereafter.
Time-lapse video microscopy was used to document the fates of cells treated with gemcitabine with and without the Chk1 inhibitor, UCN-01 (FIG. 3).

[4] = tested on: Mia-PaCa-II cells; test: Mia-PaCa-II cell viability after gemcitabine followed by authentic bosutinib; type: cell-based; settings: authentic bosutinib at 2.5 μM and 5 μM (FIG. 7D)
[5] = tested on: 300 recombinant human protein kinases; settings: of 300 recombinant human kinases; database / Anastassiadis 2011; cited from earlier work
[6] = tested on: PANC1 cells; type: cell-based; settings: for sensitization of PANC1 cells to gemcitabine: increasing gemcitabine 24 h, then UCN-01 100 nM, bosutinib or sunitinib 1 μM for 48 h (FIG. 1B)
[7] = biological target: Wee 1 (Homo sapiens, UniProt P30291); test: IC50 / kinase assay toward recombinant Wee1 (MBP or Cdc2 substrate); type: biochemical; settings: Cdc2 as substrate; data not shown
Chain of Wee 1 (P30291 whole entry): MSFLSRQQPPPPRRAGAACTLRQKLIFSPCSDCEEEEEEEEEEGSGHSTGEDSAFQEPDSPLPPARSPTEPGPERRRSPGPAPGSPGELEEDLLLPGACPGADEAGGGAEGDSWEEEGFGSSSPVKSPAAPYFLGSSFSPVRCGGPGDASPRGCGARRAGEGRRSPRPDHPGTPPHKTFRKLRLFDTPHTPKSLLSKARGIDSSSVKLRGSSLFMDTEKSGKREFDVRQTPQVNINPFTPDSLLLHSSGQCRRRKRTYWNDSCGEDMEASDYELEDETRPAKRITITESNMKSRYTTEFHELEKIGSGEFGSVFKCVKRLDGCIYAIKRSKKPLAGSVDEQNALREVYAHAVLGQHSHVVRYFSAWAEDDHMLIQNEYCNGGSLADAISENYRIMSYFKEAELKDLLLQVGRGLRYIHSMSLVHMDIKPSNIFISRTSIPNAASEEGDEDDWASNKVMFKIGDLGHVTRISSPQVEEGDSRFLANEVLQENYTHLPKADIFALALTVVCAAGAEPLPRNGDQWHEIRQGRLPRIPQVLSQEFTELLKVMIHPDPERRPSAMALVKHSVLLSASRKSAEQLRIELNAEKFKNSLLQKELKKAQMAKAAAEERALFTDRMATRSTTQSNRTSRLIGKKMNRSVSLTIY

[8] = tested on: PANC1 cells; test: Immunofluorescence of mitotic figures in gemcitabine-arrested cells; type: cell-based; settings: UCN-01 100 nM or Bos-I 1000 nM (FIG. 4)
Excerpt: Shown are representative images of cells from each treatment.
The mitotic figures of cells forced into mitosis by the newly identified sensitizers were examined to determine how they compared to checkpoint override by UCN-01. […] The defects include two lobes of chromatin that lie outside of the spindle, with the detached kinetochores lying within the spindle.
It was observed that overriding the gemcitabine induced S phase checkpoint arrest with Chk1 inhibitors (UCN-01) results in a discrete and reproducible mitotic defect called MUGs (mitotically unreplicated genomes). The defining feature of MUGs is the unreplicated centromeres in the genome are physically detached from the chromosome mass (FIG. 4).

[9] = tested on: Tyr15 phosphorylation of Cdc2; test: Tyr15 phosphorylation of Cdc2 in gemcitabine treated PANC1 cells; type: cell-based; settings: PANC1 cells treated with gemcitabine
Excerpt: Inhibition of Tyr15 phosphorylation was not observed for dasatnib, which is fully consistent with its in vitro kinase profile, and its inability to override the DNA damage checkpoint.

[10] = tested on: EGF-1 cells; test: Immunofluorescence of checkpoint override in patient-derived pancreatic cancer cell line EGF-1; type: cell-based; settings: arrest imposed by either gemcitabine or doxorubicin
Excerpt: Quantification of the percentage of cells that enter mitosis/override the checkpoint after treatment with either gemcitabine or doxorubicin is shown (right panel).
Tumor cells were isolated under an IRB-approved protocol and passaged as xenografts in mice. EGF-1 is a cell line that was derived from F1 tumors and used for in vitro studies.

[11] = tested on: Ba/F3 cells expressing the Bcr-Abl wild-type (WT); test: Viability of Ba/F3 cells expressing Bcr-Abl wild-type with bendamustine; type: cell-based; settings: Bos-I 1000 nM (FIG. 9A)
Procedure: (§1) FIGS. 9A and 9B show the viability of Ba/F3 cells either expressing (FIG. 9A) the Bcr-Abl wild-type (WT) or (FIG. 9B) the Bcr-Abl mutant (T3151) kinases (lower) treated with increasing concentrations of bendamustine alone or with the addition of Bos-1 (1000 nM).
(§2) It is believed that inhibitors of Src and Abl tyrosine kinases may be effective as a single agent in the treatment of CML (Chronic myelogenous leukemia) where it contains a specific chromosome translocation that fuses the Abl kinase to the Bcr gene. Inhibitors of the Bcr/Abl fusion kinase, such as imatinib and bostunib (Formula I), are effective in the treatment of CML, but resistance (at least for imatinib) invariably occurs. Resistance to imatinib occurs most often as a result of mutations at the gatekeeper position (Threonine 315) within the Abl kinase domain. Such mutants no longer respond to inhibitors such as imatinib. […] (FIG. 9A and FIG. 9B). It is believed that the activity of Bosutinib-isomer against wild type and T3151 mutant is likely mediated through its off-target effects against the DNA damage checkpoint kinases, Wee1 and Chk1.

[12] = tested on: Ba/F3 cells expressing the Bcr-Abl mutant (T3151); test: Viability of Ba/F3 cells expressing Bcr-Abl mutant with bendamustine; type: cell-based; settings: Bos-I 1000 nM (FIG. 9B)
Procedure: as §1, §2

With COc1cc(Nc2c(C#N)cnc3cc(OCCCN4CCN(C)CC4)c(OC)cc23)c(Cl)cc1Cl [Authentic bosutinib, Bosutinib] the “viability of gemcitabine treated PANC1 cells” value (from here on “viability”) [1] was “significantly reduced viability of cells treated with gemcitabine”, the “sensitization to killing by gemcitabine, clonogenic survival” value ([2]; compound 0.5 μM for 3 h, colonies after 10 days (FIG. 2)) was “not” and the “checkpoint override / premature entry into mitosis” value [3] was “able to override the checkpoint and force cells into premature mitosis”. For the same compound, the “sensitization of Mia-PaCa-II cells to gemcitabine” value [4] was “sensitized to gemcitabine”, the “number of kinases inhibited by more than 50%” value [5] was 84/300 and the “minimum effective concentration to sensitize cells to gemcitabine” value ([6]; PANC1, titration of sensitizer) was 750 nM. For the same compound, the “sensitization of PANC1 cells to gemcitabine” value [6] was “sensitized cells to gemcitabine”.
With Cn1c(=O)n(-c2ccc(C(C)(C)C#N)cc2)c2c3cc(-c4cnc5ccccc5c4)ccc3ncc21 [BEZ-235] the “viability” value [1] was “significantly reduced viability of cells treated with gemcitabine”.
In the case of COc1cc2c(Nc3cc(Cl)c(OC)c(Cl)c3)c(C#N)cnc2cc1OCCCN1CCN(C)CC1 [Bosutinib isomer, Bosutinib-I], the “Wee1 inhibitory activity against physiologically relevant substrate Cdc2” value [7] was “recapitulated the studies that used MBP as a substrate”, the “sensitization of PANC1 cells to doxorubicin” value ([1]; 1 μM of the isomer (FIG. 7A)) was “sensitization by the bosutinib isomer was observed” and the “sensitization of PANC1 cells to cisplatin” value ([1]; 1 μM of the isomer (FIG. 7B)) was “sensitization by the bosutinib isomer was observed”. The “sensitization to gemcitabine at 1 uM” value ([1]; PANC1, 1 uM, MTS assay and clonogenic assays) was “sensitized cells to gemcitabine”, the “viability” value [1] was “reduced the viability of gemcitabine treated cells in a dose-dependent manner” and the “sensitization to killing by gemcitabine, clonogenic survival” value ([2]; compound 1 μM for 3 h, colonies after 10 days (FIG. 2, FIG. 6)) was “sensitized cells to killing by gemcitabine”. For the same compound, the “checkpoint override / premature entry into mitosis” value [3] was “increased the number of mitotic cells”, the “mitotic figures of gemcitabine-arrested cells” value [8] was “abnormal mitotic figures from gemcitabine-arrested cells that were nearly indistinguishable from UCN-01 treatment” and the “Tyr15 phosphorylation of Cdc2” value [9] was “dose-dependent inhibition of Tyr15 phosphorylation”. The “premature entry into mitosis / checkpoint override in EGF-1 cells” value [10] was “able to prematurely enter mitosis after overriding checkpoint arrests”, the “killing of cells in combination with Bendamustine” value [11] was “enhanced killing of cells” and the “killing of cells in combination with Bendamustine” value [12] was “enhanced killing of cells”. The “number of kinases inhibited by more than 50%” value [5] was 84.
For CN[C@@H]1C[C@H]2O[C@@](C)([C@@H]1OC)n1c3ccccc3c3c4c(c5c6ccccc6n2c5c31)C(=O)N[C@@H]4O [UCN-01], the “checkpoint override / premature entry into mitosis” value [3] was “forced cells to prematurely enter mitosis; also recorded: increased the number of cells that entered mitosis”, the “mitotic figures of gemcitabine-arrested cells” value [8] was “severely perturbed mitotic figures” and the “sensitization of PANC1 cells to gemcitabine” value [6] was “sensitized cells to gemcitabine”.
Work on Nc1ccn([C@@H]2O[C@H](CO)[C@@H](O)C2(F)F)c(=O)n1 [gemcitabine, Gemcitabine] yielded a CC50 ([1]; Homo sapiens, PANC-1, read-out: LC50 of gemcitabine alone) greater than 30 nM.
